Drawing on ChEMBL document CHEMBL2177101, “Role of the CAI-1 fatty acid tail in the Vibrio cholerae quorum sensing response” (J Med Chem, 2012), this text covers Emax and EC50 for 34 compounds.

In general, Emax refers to the size of the effect at its maximum, as opposed to the concentration needed. What is called EC50 is the concentration giving half of the maximal effect. Low values mean a more potent agent, high ones a less potent agent.

The first experiment deals with Vibrio cholerae. Briefly: Agonist activity at CqsS in Vibrio cholerae MM920 harboring deltacqsA, deltaluxQ and pBB1 at 50000 nM after 4 hrs by bioluminescence assay relative to CAI-1. It counts as functional.
On to `CCc1ccccc1CCCOC(=O)C(O)CC` (racemic), for which the Emax turned out to be 28%.

`CCCCOC(=O)C(O)CC` (racemic) displayed an Emax of 23%.

As for `CCOCCOCCOC(=O)C(O)CC` (racemic), the Emax was found to be 31%.

`CCCCc1ccccc1COC(=O)C(O)CC` (racemic) registered a maximum response (Emax) of 11%.

Tested on in the next experiment: not listed separately
Put plainly: Agonist activity at CqsS in Vibrio cholerae MM920 harboring deltacqsA, deltaluxQ and pBB1 after 4 hrs by bioluminescence assay. It counts as functional.
As to `CCCCCCCCNC(=O)[C@@H](O)CC`, the EC50 came to 1500 nM.

For the compound `CCCCCCCCCC(=O)[C@@H](N)CC`, the midpoint of the response, the EC50, lay at 28 nM.

For `CCCCCCCCOC(=O)[C@@H](N)CC`, the midpoint of the response, the EC50, lay at 30 nM. The EC50 values of the last two compounds are within 1.5-fold of each other.

With `CCCCCCCCOC(=O)[C@H](N)CC`, it took 33 nM to reach a half-maximal effect (EC50). The EC50 values of the last two compounds are within 1.5-fold of each other.

`CCCCC/C=C/COC(=O)[C@@H](O)CC` displayed a 50% effective concentration (EC50) of 39 nM.

`CCCCc1ccc(COC(=O)[C@@H](O)CC)cc1` returned a 50% effective concentration (EC50) of 117 nM. Against the preceding compound, the EC50 is about 3-fold higher.

As for `CCCCC[C@@H]1C[C@H]1COC(=O)C(O)CC` (mixture of isomers), the EC50 stood at 1200 nM.

`CCCC/C=C\CCOC(=O)C(O)CC` (racemic) came in with an EC50 of 780 nM.

With `CCCCCc1ccc(COC(=O)C(O)CC)cc1` (racemic), the EC50 amounted to 680 nM. This EC50 and that of the compound before are within 1.5-fold of each other.

The compound `CCCCCc1cccc(COC(=O)C(O)CC)c1` (racemic) had a concentration giving a half-maximal response (EC50) of 1600 nM.

`CCc1ccc(CCCOC(=O)C(O)CC)cc1` (racemic): the EC50 amounted to 190 nM.

In turn, `CCc1cccc(CCCOC(=O)C(O)CC)c1` (racemic) gave a half-maximal effective concentration (EC50) of 9400 nM.

The compound `CCc1ccccc1CCCOC(=O)C(O)CC` (racemic) showed an EC50 above 50000 nM.

Consider `CCCCOC(=O)C(O)CC` (racemic), for which the EC50 is above 50000 nM.

As to `CCCCCCOC(=O)C(O)CC` (racemic), the EC50 was 1000 nM. In other words, the single-digit micromolar range.

Consider `CCCCCCCOC(=O)C(O)CC` (racemic), for which the EC50 turned out to be 350 nM. This EC50 lies about 2.9-fold lower than the previous one.

Take `CCCCCCCCCOC(=O)C(O)CC` (racemic): the concentration giving a half-maximal response (EC50) came out at 73 nM.

With `CCCCCCCCCCOC(=O)C(O)CC` (racemic), the 50% effective concentration (EC50) is 720 nM. Against the preceding compound, the EC50 is about 9.9-fold higher.

As for `CCCCCOCCOC(=O)C(O)CC` (racemic), the EC50 turned out to be 4400 nM. This EC50 is about 6.1-fold higher than that of the compound before.

The compound `CCOCCOCCOC(=O)C(O)CC` (racemic) displayed an EC50 above 50000 nM.

The compound `CCCCCCOCCOC(=O)C(O)CC` (racemic) came in with a half-maximal effective concentration (EC50) of 2400 nM.

With `CCC(O)C(=O)OCCOCCOCCOC` (racemic), the EC50 was 10000 nM.

On to `CCCCC/C=C/COC(=O)C(O)CC` (racemic), for which the half-maximal effective concentration (EC50) was found to be 54 nM.

In turn, `CCCCC/C=C\COC(=O)C(O)CC` (racemic) returned an EC50 of 710 nM.

Take `CCCCCC#CCOC(=O)C(O)CC` (racemic): the concentration for a half-maximal effect (EC50) was 550 nM.

Compound `CCCC/C=C/CCOC(=O)C(O)CC` (racemic) returned an EC50 of 770 nM.

`CCCCC#CCCOC(=O)C(O)CC` (racemic) came in with an EC50 of 2000 nM.

For `CCC/C=C/CCCOC(=O)C(O)CC` (racemic), the concentration for a half-maximal effect (EC50) was 270 nM.

`CCC/C=C\CCCOC(=O)C(O)CC` (racemic) yielded an EC50 of 1800 nM.

`CC/C=C/CCCCOC(=O)C(O)CC` (racemic): the EC50 was found to be 830 nM. This EC50 is about 2.2-fold lower than that of the compound before.

`CC/C=C\CCCCOC(=O)C(O)CC` (racemic) showed a 50% effective concentration (EC50) of 570 nM.

On to `CCCCc1ccc(COC(=O)C(O)CC)cc1` (racemic), for which it took 190 nM to reach a half-maximal effect (EC50).

`CCCCc1cccc(COC(=O)C(O)CC)c1` (racemic) had an EC50 of 3700 nM.

The compound `CCCCc1ccccc1COC(=O)C(O)CC` (racemic) registered an EC50 above 50000 nM.
